Source: PMC4747407 (Oncotarget, 2015)
Entries after “also recorded” stand apart in the source; their conditions may differ.

Tests used:
[1] = system: Wnt1 (int-1) mammary tumors; assay: Wnt1 subcutaneous mammary tumor model; details: E6201 40 mg/kg i.v. Q4Dx3; for tumor growth, single agent: E7449 100 mg/kg once daily, Wnt-C59 10 mg/kg once daily
Experimental: (§1) All studies were performed according to IACUC approved protocols. The general health of mice was monitored daily. Tumor volume was determined by caliper measurements (mm), using the formula (l x w^2)/2 = mm^3, where l and w refer to the larger and smaller perpendicular dimensions collected at each measurement. Tumor dimensions were recorded twice per week starting when tumors reached an approximate size of 100 to 150 mm^3. Body weights were recorded twice per week and relative body weight was calculated as follows: Relative body weight = (body weight on day of measurement/body weight on first day of treatment).
Tumor pieces cut to approximately 2 mm^3 in size were injected subcutaneously in female nude mice. Treatment was initiated approximately 9–10 days post-implantation of mice.

[2] = cited from earlier work
[3] = system: B16-F10 mouse melanoma isografts; assay: B16-F10 mouse melanoma isograft model, combination with TMZ; type: in vivo; details: E7449 100 mg/kg or TMZ 50 mg/kg, oral once daily
Experimental: All studies were performed according to IACUC approved protocols. The general health of mice was monitored daily.
TMZ combination in B16-F10 isograft model: female C57BL/6 mice were inoculated subcutaneously with B16-F10 cells (2 × 10^5). Following randomization by body weight, drug treatment was initiated 1 day post-inoculation. […] TMZ was administered daily on days 1 to 5 at 50 mg/kg as a single agent or in combination. […] The control group was treated with vehicle (0.5% methyl cellulose in water). E7449 or vehicle was administered first and when dosing of all animals was complete TMZ was administered to animals receiving the combination.

Wnt1 model tumors = assay: Gene expression of Wnt-related genes in Wnt1 model tumors (mouse TLDA); type: in vivo; details: 7 days of drug treatment
Experimental: (§2) Gene expression profiling was performed using a custom designed TaqMan® low density array (TLDA). Total RNA was isolated from cell lines using RNeasy Mini Kit (Qiagen) and from xenograft tumor FFPE tissue using RecoverAll Total Nucleic Acid Isolation (Ambion). Human and mouse, real-time qPCR TLDAs (384-well micro fluidic card) were designed with genes selected based on their involvement in Wnt signalling (see supplementary Tables 2 and 3 for lists of genes on TLDAs). cDNA was generated from total RNA using High Capacity cDNA Reverse Transcription kit (Life Technologies) or SuperScript® VILO™ Master Mix (Life Technologies). 100 ng cDNA was combined with TaqMan® Gene Expression Master Mix (Life Technologies) for the cell lines and TaqMan® Advanced FAST Master Mix (Life Technologies) for the xenograft tissue for each port (in duplicate). TLDAs were run based on recommended cycling times for each master mix. Ct values were calculated and imported into GeneData Analyst for further analysis. To calculate the ΔCts, gene expression was normalized to several housekeeping genes. Relative fold change was calculated by comparison to the DMSO or vehicle-treated controls for each sample. A student's t-test was used to calculate P-values and hierarchical clustering used Manhattan distance and complete linkage plotting of selected significant genes to generate heat maps.

DLD-1 cells = assay: Western blot of Wnt/β-catenin pathway proteins in DLD-1 cells; type: cell-based, human; details: 24 h
Experimental: (§3) SW480, DLD-1 (Wnt-dependent) or RKO (Wnt-independent) cells were plated in 6-well plates and incubated overnight. Cells were treated with E7449, olaparib or XAV939 and incubated for various time periods prior to processing by SDS PAGE and western blot analysis. […] Following binding of appropriate secondary antibodies labeled with IRDye® (LI-COR), image analysis was performed with Image Studio software for the LI-COR Odyssey system (version 2.1.10).

SW480 cells [4] = assay: Gene expression profiling of Wnt-related genes (TLDA qPCR) in SW480 cells; type: cell-based, human; details: 3 μmol/L (XAV939 also 30 μmol/L), 72 h
Experimental: as §2

SW480 cells [5] = assay: Western blot of Wnt/β-catenin pathway proteins in SW480 cells; type: cell-based, human; details: 10 μmol/L, 24 h
Experimental: as §3

[6] = system: MX-1 human breast cancer xenografts; type: in vivo; details: E7449 100 mg/kg oral once daily; carboplatin single i.v. dose 60 mg/kg
Experimental: as §1
Carboplatin combination in MX-1 orthotopic xenografts: female nude mice were implanted with MX-1 cells (0.5 × 10^6) in the thoracic mammary fat pad. Treatment started on day 3 when the average tumor size was approximately 50 mm^3. Carboplatin was administered as a single intravenous dose at 60 mg/kg on day 3 or 4.

tankyrase = details: read-out: reported IC50 values for tankyrase inhibition; various assays; cited from earlier work
TNKS1 = details: read-out: reported IC50, TNKS1; cited from earlier work
TNKS1/2 = system: TNKS1/2; set-up: method as in Wahlberg et al 48; details: ref Wahlberg et al 48; cited from earlier work
PARP2 = details: read-out: reported IC50, PARP2; cited from earlier work
[7] = system: DNA repair mutant DT40 cell lines; assay: Proliferation assay in panel of isogenic DNA repair mutant DT40 cell lines (XTT); type: cell-based, avian; details: versus wild type DT40
wild type DT40 cells = assay: cells; details: DT40, 48 h, read-out: IC50, cell proliferation, wild type DT40 cells

CCNc1cc(O)c2c(c1)/C=C/C[C@H](O)[C@H](O)C(=O)/C=C\[C@@H](C)[C@H](C)OC2=O [E6201, reference compound]
decreased body weight ([1]; recovered post-treatment): < 10% | tumor growth, single agent [1]: No antitumor activity

CS(=O)(=O)c1ccc(-c2nnc(/C=C/c3nnc(-c4ccc(C#N)cc4)o3)n2-c2ccccc2Cl)nc1 [G007-LK]
single agent antitumor activity [2]: inhibit tumor growth as a single agent in certain models | therapeutic window ([2]; in vivo): very narrow therapeutic window because of intestinal toxicity

Cn1nnc2c(C(N)=O)ncn2c1=O [TMZ, temozolomide, reference compound]
growth of subcutaneous tumors, single agent [3]: moderately inhibited

Cc1cc(-c2ccc(CC(=O)Nc3ccc(-c4cccnc4)cc3)cc2)ccn1 [Wnt-C59, reference compound]
tumor growth, single agent [1]: significant antitumor activity; also recorded: significantly inhibited tumor growth | expression of Wnt-related genes CAR2, FZD9, LEF1, VIL1 in tumors (Wnt1 model tumors): significant alteration

Oc1nc(-c2ccc(C(F)(F)F)cc2)nc2c1CSCC2 [XAV939]
effect on levels of β-catenin (DLD-1 cells): robust effect on levels of β-catenin was not observed | expression of 6 E7449-responsive genes (NOS3, LGR5, LEF1, NKD1, CYR61, MMP7) (SW480 cells [4]): altered expression of these 6 genes in the same direction | Cyclin D1 protein levels (SW480 cells [5]): modest decrease | axin2 protein level (SW480 cells [5]): Increased axin2 | reduction of active (non-phosphorylated) β-catenin level (SW480 cells [5]): ~ 90% | reduction of total β-catenin level (SW480 cells [5]): ~75%

N.N.O=C([O-])C1(C(=O)[O-])CCC1.[Pt+2] [carboplatin, reference compound]
antitumor activity, single agent [6]: modest, but statistically significant versus vehicle; also recorded: only modest antitumor activity

NC(=O)c1cccc2cn(-c3ccc([C@@H]4CCCNC4)cc3)nc12 [niraparib]
IC50 (tankyrase): 600 nM

O=C(c1cc(Cc2n[nH]c(=O)c3ccccc23)ccc1F)N1CCN(C(=O)C2CC2)CC1 [olaparib]
expression of 6 E7449-responsive genes (NOS3, LGR5, LEF1, NKD1, CYR61, MMP7) (SW480 cells [4]): no effect or altered expression in the opposite direction | Cyclin D1 protein levels (SW480 cells [5]): unaffected | axin2 protein level (SW480 cells [5]): remained at basal levels | β-catenin protein levels (SW480 cells [5]): remained unchanged | IC50 (TNKS1): […] | binding to TNKS1/2 catalytic domain (TNKS1/2): no significant binding | IC50 (PARP2): […] | sensitivity of DT40 cells lacking PARP expression [7]: A similar observation | IC50 (wild type DT40 cells): 2100 nM | IC50 (tankyrase): […]

CNCc1ccc(-c2[nH]c3cc(F)cc4c3c2CCNC4=O)cc1 [rucaparib]
binding to TNKS1/2 catalytic domain (TNKS1/2): binding to the catalytic domain of multiple PARP family members including tankyrases

C[C@]1(c2nc3c(C(N)=O)cccc3[nH]2)CCCN1 [veliparib]
binding to TNKS1/2 catalytic domain (TNKS1/2): no significant binding | IC50 (tankyrase): […]
